Measurements from PubChem BioAssay AID192 (DTP/NCI, 2004).
Several values for one entry are separate records, joined by “and”; a condition that tells them apart may be missing. Equal entries are not always repeated. Toxic doses and inconclusive results are not listed. The calls were made as follows: active = survival T/C of 150% or more; inactive = T/C below 125% in these data.

System: BDF1 mice, B16 melanoma ip, median survival T/C
Experiment: NCI In Vivo Anticancer Drug Screen. Data for tumor model B16 Melanoma (intraperitoneal) in B6D2F1 (BDF1) mice
Settings: endpoint: median survival time, higher = longer survival
Method in brief: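 Survival or tumor size is measured after treatment of tumor-bearing mice and normalised to the vehicle-treated control group.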

[1] = dose: 50.0 mg/kg/injection, schedule: Q01DX009 (ip), vehicle: saline with Tween-80
[2] = dose: 100.0 mg/kg/injection, schedule: Q01DX009 (ip), vehicle: saline with Tween-80
[3] = dose: 200.0 mg/kg/injection, schedule: Q01DX009 (ip), vehicle: saline with Tween-80
[4] = dose: 25.0 mg/kg/injection, schedule: Q01DX009 (ip), vehicle: saline with Tween-80
[5] = dose: 25.0 mg/kg/injection, schedule: Q04DX003 (ip), vehicle: saline with Tween-80
[6] = dose: 4.0 mg/kg/injection, schedule: Q01DX009 (ip), vehicle: saline with Tween-80
[7] = dose: 100.0 mg/kg/injection, schedule: Q01DX009 (ip), vehicle: Klucel (hydroxypropylcellulose) (HPC)
[8] = dose: 25.0 mg/kg/injection, schedule: Q01DX009 (ip), vehicle: Klucel (hydroxypropylcellulose) (HPC)
[9] = dose: 50.0 mg/kg/injection, schedule: Q01DX009 (ip), vehicle: Klucel (hydroxypropylcellulose) (HPC)
[10] = dose: 12.5 mg/kg/injection, schedule: Q01DX009 (ip), vehicle: Klucel (hydroxypropylcellulose) (HPC)

Measured: T/C

CCCS(=O)[O-].CCCS(=O)[O-].[Zn+2]
inactive: dose: 0.05 mg/kg/injection, schedule: Q01DX009 (ip), vehicle: saline 106 % of control | dose: 0.1 mg/kg/injection, schedule: Q01DX009 (ip), vehicle: saline 91 % of control | dose: 0.2 mg/kg/injection, schedule: Q01DX009 (ip), vehicle: saline 103 % of control | dose: 0.4 mg/kg/injection, schedule: Q01DX009 (ip), vehicle: saline 101 % of control | dose: 0.8 mg/kg/injection, schedule: Q01DX009 (ip), vehicle: saline 96 % of control | dose: 1.6 mg/kg/injection, schedule: Q01DX009 (ip), vehicle: saline 100 % of control | dose: 3.2 mg/kg/injection, schedule: Q01DX009 (ip), vehicle: saline 95 % of control | dose: 6.4 mg/kg/injection, schedule: Q01DX009 (ip), vehicle: saline 103 % of control | dose: 12.8 mg/kg/injection, schedule: Q01DX009 (ip), vehicle: saline 101 % of control

Cc1ccc2nc3c4ccccc4c4ccccc4c3nc2c1
inactive: dose: 100.0 mg/kg/injection, schedule: Q04DX003 (ip), vehicle: Klucel (hydroxypropylcellulose) (HPC) 102 % of control | dose: 200.0 mg/kg/injection, schedule: Q04DX003 (ip), vehicle: Klucel (hydroxypropylcellulose) (HPC) 97 % of control | dose: 400.0 mg/kg/injection, schedule: Q04DX003 (ip), vehicle: Klucel (hydroxypropylcellulose) (HPC) 91 % of control

CN(C)C(=S)Nc1ccccc1
inactive: [1] 95 % of control | [2] 95 % of control | [3] 90 % of control

C=CCCCCCCCCC(=O)N(CCOC)CCOC
inactive: [4] 115 % of control | [5] 97 % of control | [1] 102 % of control | dose: 50.0 mg/kg/injection, schedule: Q04DX003 (ip), vehicle: saline with Tween-80 91 % of control | dose: 100.0 mg/kg/injection, schedule: Q04DX003 (ip), vehicle: saline with Tween-80 89 % of control

N#CCN1CCCCC1
inactive: dose: 0.39 mg/kg/injection, schedule: Q01DX009 (ip), vehicle: saline 96 % of control | dose: 0.78 mg/kg/injection, schedule: Q01DX009 (ip), vehicle: saline 100 % of control | dose: 1.56 mg/kg/injection, schedule: Q01DX009 (ip), vehicle: saline 102 % of control

CC(=O)[S][Pb]([c]1ccccc1)([c]1ccccc1)[c]1ccccc1
inactive: dose: 0.5 mg/kg/injection, schedule: Q01DX009 (ip), vehicle: saline with Tween-80 97 % of control | dose: 1.0 mg/kg/injection, schedule: Q01DX009 (ip), vehicle: saline with Tween-80 93 % of control | dose: 2.0 mg/kg/injection, schedule: Q01DX009 (ip), vehicle: saline with Tween-80 92 % of control | [6] 101 % of control

CC(=O)NNC(=O)c1ccccc1
inactive: dose: 12.5 mg/kg/injection, schedule: Q#A X018 (ip), vehicle: water 93 % of control | dose: 25.0 mg/kg/injection, schedule: Q#A X018 (ip), vehicle: water 93 % of control | dose: 50.0 mg/kg/injection, schedule: Q#A X018 (ip), vehicle: water 106 % of control

CCOc1ccc(NC(=O)c2cccc(C(=O)Nc3ccc(OCC)cc3)c2)cc1
inactive: [7] 103 % of control | dose: 200.0 mg/kg/injection, schedule: Q01DX009 (ip), vehicle: Klucel (hydroxypropylcellulose) (HPC) 93 % of control | dose: 400.0 mg/kg/injection, schedule: Q01DX009 (ip), vehicle: Klucel (hydroxypropylcellulose) (HPC) 86 % of control

CC(=O)Nc1ccc([I+]c2ccc([N+](=O)[O-])cc2)cc1
inactive: [8] 100 % of control | [9] 104 % of control | [1] 87 % of control | [7] 90 % of control | [2] 98 % of control | [3] 107 % of control

COc1cccc2c1C(=O)c1c(O)c3c(c(O)c1C2=O)C[C@@](O)(/C(CO)=N/NC(=O)c1ccc(Cl)c(Cl)c1)C[C@@H]3OC1CC(NC(=S)Nc2ccc(F)cc2)C(O)C(C)O1 (stereo partly specified)
inactive: dose: 0.4 mg/kg/injection, schedule: Q01DX009 (ip), vehicle: water 101 % of control | dose: 0.8 mg/kg/injection, schedule: Q01DX009 (ip), vehicle: water 112 % of control | dose: 1.6 mg/kg/injection, schedule: Q01DX009 (ip), vehicle: water 111 % of control | dose: 3.2 mg/kg/injection, schedule: Q01DX009 (ip), vehicle: water 106 % of control

Clc1ccc2c(c1)/C(=C\c1ccnc3ccccc13)c1cc(Cl)cc(Cl)c1-2
inactive: dose: 6.25 mg/kg/injection, schedule: Q01DX009 (ip), vehicle: saline with Tween-80 93 % of control

OCCCCc1nccc2c1[nH]c1ccccc12
inactive: [10] 97 % of control | [8] 95 % of control | [9] 95 % of control | [7] 96 % of control

CCC1CCCCC1=O (stereo unspecified)
inactive: dose: 44.0 mg/kg/injection, schedule: Q01DX009 (ip), vehicle: saline with Tween-80 97 % of control | dose: 67.0 mg/kg/injection, schedule: Q01DX009 (ip), vehicle: saline with Tween-80 95 % of control | [2] 100 % of control | dose: 150.0 mg/kg/injection, schedule: Q01DX009 (ip), vehicle: saline with Tween-80 102 % of control

NC(=O)Cn1cnc2c(=S)nc[nH]c21
inactive: dose: 12.5 mg/kg/injection, schedule: Q04DX003 (ip), vehicle: saline with Tween-80 95 % of control | [5] 100 % of control

CC(C)=CCc1c2c(c(O)c3c(=O)c(-c4ccc(O)c(O)c4)coc13)C=CC(C)(C)O2
inactive: [4] 100 % of control | [1] 94 % of control | [2] 94 % of control | [3] 100 % of control

O=S1(=O)OCc2ccccc21
inactive: [10] 115 % of control | [8] 108 % of control | [9] 118 % of control

CC(C)(C)OC(=O)N1CCCC1C(=O)N1CCCC1C(=O)Oc1ccccc1 (stereo unspecified)
inactive: dose: 100.0 mg/kg/injection, schedule: Q01DX009 (ip), vehicle: saline 121 % of control | dose: 200.0 mg/kg/injection, schedule: Q01DX009 (ip), vehicle: saline 110 % of control | dose: 400.0 mg/kg/injection, schedule: Q01DX009 (ip), vehicle: saline 114 % of control

CC1=C(/C=C/C(C)=C/C=C/C(C)=C/CO)C(C)(C)CCC1
inactive: [6] 90 % of control and 100 % of control | dose: 8.0 mg/kg/injection, schedule: Q01DX009 (ip), vehicle: saline with Tween-80 99 % of control and 101 % of control | dose: 16.0 mg/kg/injection, schedule: Q01DX009 (ip), vehicle: saline with Tween-80 97 % of control and 103 % of control | dose: 32.0 mg/kg/injection, schedule: Q01DX009 (ip), vehicle: saline with Tween-80 90 % of control and 105 % of control

CCC(C)NC(=O)Nc1cccc(Cl)c1C (stereo unspecified)
inactive: [2] 102 % of control | [3] 96 % of control

COP12(OCCO1)SC(C(F)(F)F)=C(C(F)(F)F)S2
inactive: dose: 12.5 mg/kg/injection, schedule: Q01DX009 (ip), vehicle: saline with Tween-80 100 % of control | [4] 104 % of control

CC(C)=CCC(O)C1=CC(=O)c2c(O)ccc(O)c2C1=O (stereo unspecified)
inactive: dose: 1.25 mg/kg/injection, schedule: Q01DX009 (ip), vehicle: Klucel (hydroxypropylcellulose) (HPC) 107 % of control | dose: 2.5 mg/kg/injection, schedule: Q01DX009 (ip), vehicle: Klucel (hydroxypropylcellulose) (HPC) 102 % of control | dose: 5.0 mg/kg/injection, schedule: Q01DX009 (ip), vehicle: Klucel (hydroxypropylcellulose) (HPC) 92 % of control | dose: 10.0 mg/kg/injection, schedule: Q01DX009 (ip), vehicle: Klucel (hydroxypropylcellulose) (HPC) 87 % of control

c1ccc2c(c1)ccc1c[n+]3ccccc3cc12
inactive: dose: 0.25 mg/kg/injection, schedule: Q01DX009 (ip), vehicle: saline 114 % of control | dose: 0.5 mg/kg/injection, schedule: Q01DX009 (ip), vehicle: saline 100 % of control | dose: 1.0 mg/kg/injection, schedule: Q01DX009 (ip), vehicle: saline 97 % of control

O=C1c2cccnc2C(=O)c2c(O)ccc(O)c21
inactive: [4] 92 % of control | [1] 103 % of control | [2] 112 % of control | [3] 89 % of control

OCCNCc1ccc(Cl)cc1
inactive: [1] 104 % of control | [2] 109 % of control | [3] 103 % of control
